Legend:
Test in all cases: Eurofins kinase selectivity profile against 380 other human recombinant kinases (Table S2)
Type in all cases: biochemical
[1] = biological target: T1, 380 human recombinant protein kinases (Homo sapiens, UniProt O00238); settings: ALK6(h), read-out: Inhibition rate
T1 construct: purchased Eurofins (Celle Lévescault)
Summary of the method: (§1)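 Outsourced panel: 380 human recombinant kinases; inhibitor tested at various concentrations; purpose: MK2 selectivity check.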

[2] = biological target: T2, 380 human recombinant protein kinases (Homo sapiens, UniProt O75716); settings: STK16(h), read-out: Inhibition rate (%)
T2 construct: purchased Eurofins (Celle Lévescault)
T2 sequence (O75716 whole entry): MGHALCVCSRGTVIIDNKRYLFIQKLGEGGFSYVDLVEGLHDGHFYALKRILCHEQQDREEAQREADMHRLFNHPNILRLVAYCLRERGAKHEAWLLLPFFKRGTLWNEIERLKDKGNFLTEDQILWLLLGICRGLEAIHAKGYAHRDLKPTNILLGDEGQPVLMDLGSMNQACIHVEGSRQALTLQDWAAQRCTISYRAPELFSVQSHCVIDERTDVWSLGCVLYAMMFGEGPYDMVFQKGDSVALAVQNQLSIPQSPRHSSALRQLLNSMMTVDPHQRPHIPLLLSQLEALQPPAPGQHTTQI
Summary of the method: as §1

[3] = biological target: T3, 380 human recombinant protein kinases (Homo sapiens, UniProt O95819); settings: MAP4K4(h), read-out: Inhibition rate
T3 construct: purchased Eurofins (Celle Lévescault)
T3 sequence (O95819 whole entry): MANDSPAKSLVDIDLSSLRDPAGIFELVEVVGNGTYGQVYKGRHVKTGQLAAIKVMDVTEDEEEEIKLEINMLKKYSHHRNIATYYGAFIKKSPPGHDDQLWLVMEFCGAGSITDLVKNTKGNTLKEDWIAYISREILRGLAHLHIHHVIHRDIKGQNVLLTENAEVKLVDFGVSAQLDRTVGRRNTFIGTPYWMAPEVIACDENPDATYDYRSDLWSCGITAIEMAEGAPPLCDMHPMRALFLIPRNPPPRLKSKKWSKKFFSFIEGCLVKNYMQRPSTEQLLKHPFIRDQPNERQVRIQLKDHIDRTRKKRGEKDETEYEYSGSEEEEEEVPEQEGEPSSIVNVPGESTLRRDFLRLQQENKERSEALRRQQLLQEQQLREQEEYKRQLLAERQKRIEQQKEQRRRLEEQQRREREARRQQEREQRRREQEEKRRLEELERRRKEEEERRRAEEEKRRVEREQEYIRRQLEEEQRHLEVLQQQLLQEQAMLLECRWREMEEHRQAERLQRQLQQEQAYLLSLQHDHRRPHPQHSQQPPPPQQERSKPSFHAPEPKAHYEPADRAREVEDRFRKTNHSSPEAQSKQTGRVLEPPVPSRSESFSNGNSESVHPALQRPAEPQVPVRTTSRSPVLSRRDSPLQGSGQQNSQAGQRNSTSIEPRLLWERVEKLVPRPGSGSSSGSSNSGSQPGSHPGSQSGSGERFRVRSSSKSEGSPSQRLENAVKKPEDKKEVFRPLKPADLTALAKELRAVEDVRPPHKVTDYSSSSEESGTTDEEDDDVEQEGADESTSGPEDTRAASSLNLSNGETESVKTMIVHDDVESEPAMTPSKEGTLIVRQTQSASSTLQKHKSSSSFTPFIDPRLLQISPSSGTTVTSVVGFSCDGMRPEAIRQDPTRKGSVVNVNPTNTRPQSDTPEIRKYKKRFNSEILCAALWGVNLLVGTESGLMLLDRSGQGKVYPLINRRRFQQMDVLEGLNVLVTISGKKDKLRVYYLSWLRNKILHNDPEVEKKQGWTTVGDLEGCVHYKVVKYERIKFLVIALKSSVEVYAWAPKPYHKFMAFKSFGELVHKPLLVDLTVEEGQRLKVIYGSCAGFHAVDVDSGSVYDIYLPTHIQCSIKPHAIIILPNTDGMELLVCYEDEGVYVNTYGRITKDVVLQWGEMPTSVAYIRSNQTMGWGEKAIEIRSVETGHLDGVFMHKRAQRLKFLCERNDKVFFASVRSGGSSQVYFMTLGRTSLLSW
Summary of the method: as §1

[4] = biological target: T4, 380 human recombinant protein kinases (Homo sapiens, UniProt P07333); settings: Fms(h), read-out: Inhibition rate
T4 construct: purchased Eurofins (Celle Lévescault)
T4 sequence (P07333 20-972): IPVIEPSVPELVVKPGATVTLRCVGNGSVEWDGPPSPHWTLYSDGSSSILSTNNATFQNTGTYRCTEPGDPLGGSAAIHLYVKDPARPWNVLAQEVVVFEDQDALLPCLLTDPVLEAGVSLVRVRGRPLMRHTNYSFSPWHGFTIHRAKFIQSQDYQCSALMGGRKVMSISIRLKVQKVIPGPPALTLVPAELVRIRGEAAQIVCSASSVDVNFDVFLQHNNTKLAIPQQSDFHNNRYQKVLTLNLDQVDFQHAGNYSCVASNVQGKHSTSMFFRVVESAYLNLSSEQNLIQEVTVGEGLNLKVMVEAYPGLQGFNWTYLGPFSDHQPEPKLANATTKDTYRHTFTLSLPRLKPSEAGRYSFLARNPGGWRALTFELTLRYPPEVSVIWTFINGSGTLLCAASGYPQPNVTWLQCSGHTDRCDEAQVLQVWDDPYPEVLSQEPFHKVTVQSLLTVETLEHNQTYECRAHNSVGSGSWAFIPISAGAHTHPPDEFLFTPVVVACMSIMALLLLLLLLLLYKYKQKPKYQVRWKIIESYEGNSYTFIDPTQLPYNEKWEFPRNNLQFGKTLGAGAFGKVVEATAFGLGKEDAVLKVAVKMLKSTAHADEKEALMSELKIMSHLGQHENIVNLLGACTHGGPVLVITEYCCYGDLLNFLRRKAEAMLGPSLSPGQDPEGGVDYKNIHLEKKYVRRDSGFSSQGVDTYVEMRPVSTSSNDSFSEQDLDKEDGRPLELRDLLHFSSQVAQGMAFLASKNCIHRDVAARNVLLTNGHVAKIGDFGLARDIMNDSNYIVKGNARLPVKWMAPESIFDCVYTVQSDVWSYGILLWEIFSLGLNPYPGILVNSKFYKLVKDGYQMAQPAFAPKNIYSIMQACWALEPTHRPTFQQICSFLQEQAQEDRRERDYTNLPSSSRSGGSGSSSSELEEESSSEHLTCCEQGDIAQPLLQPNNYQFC
Summary of the method: as §1

[5] = biological target: T5, 380 human recombinant protein kinases (Homo sapiens, UniProt P11309); settings: Pim-1(h), read-out: Inhibition rate
T5 construct: purchased Eurofins (Celle Lévescault)
Summary of the method: as §1

[6] = biological target: T6, 380 human recombinant protein kinases (Homo sapiens, UniProt Q12851); settings: GCK(h), read-out: Inhibition rate
T6 construct: purchased Eurofins (Celle Lévescault)
T6 sequence (Q12851 1-820): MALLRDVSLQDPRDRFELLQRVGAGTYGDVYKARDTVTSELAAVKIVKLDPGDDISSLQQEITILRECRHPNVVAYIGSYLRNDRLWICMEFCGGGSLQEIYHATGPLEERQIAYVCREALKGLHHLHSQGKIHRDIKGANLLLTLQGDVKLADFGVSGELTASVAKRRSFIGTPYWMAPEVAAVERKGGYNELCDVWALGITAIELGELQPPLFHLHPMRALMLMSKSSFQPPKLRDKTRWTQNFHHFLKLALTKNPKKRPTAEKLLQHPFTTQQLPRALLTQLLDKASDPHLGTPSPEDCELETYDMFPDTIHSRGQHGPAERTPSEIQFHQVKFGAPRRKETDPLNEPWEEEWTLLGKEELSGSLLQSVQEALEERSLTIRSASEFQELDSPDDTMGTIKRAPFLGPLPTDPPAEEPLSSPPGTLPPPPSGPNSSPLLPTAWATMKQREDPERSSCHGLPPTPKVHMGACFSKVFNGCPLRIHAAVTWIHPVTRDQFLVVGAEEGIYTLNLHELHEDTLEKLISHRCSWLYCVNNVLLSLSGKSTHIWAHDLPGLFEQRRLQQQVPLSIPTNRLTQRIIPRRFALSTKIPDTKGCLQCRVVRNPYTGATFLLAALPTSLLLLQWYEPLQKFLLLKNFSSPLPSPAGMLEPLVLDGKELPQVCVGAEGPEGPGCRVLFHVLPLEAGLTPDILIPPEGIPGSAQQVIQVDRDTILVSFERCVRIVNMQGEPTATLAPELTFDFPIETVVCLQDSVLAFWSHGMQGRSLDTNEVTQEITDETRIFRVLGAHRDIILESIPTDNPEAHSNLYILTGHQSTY
Summary of the method: as §1

[7] = biological target: T7, 380 human recombinant protein kinases (Homo sapiens, UniProt Q96QT4); settings: ChaK1(h), read-out: Inhibition rate
T7 construct: purchased Eurofins (Celle Lévescault)
T7 sequence (Q96QT4 whole entry): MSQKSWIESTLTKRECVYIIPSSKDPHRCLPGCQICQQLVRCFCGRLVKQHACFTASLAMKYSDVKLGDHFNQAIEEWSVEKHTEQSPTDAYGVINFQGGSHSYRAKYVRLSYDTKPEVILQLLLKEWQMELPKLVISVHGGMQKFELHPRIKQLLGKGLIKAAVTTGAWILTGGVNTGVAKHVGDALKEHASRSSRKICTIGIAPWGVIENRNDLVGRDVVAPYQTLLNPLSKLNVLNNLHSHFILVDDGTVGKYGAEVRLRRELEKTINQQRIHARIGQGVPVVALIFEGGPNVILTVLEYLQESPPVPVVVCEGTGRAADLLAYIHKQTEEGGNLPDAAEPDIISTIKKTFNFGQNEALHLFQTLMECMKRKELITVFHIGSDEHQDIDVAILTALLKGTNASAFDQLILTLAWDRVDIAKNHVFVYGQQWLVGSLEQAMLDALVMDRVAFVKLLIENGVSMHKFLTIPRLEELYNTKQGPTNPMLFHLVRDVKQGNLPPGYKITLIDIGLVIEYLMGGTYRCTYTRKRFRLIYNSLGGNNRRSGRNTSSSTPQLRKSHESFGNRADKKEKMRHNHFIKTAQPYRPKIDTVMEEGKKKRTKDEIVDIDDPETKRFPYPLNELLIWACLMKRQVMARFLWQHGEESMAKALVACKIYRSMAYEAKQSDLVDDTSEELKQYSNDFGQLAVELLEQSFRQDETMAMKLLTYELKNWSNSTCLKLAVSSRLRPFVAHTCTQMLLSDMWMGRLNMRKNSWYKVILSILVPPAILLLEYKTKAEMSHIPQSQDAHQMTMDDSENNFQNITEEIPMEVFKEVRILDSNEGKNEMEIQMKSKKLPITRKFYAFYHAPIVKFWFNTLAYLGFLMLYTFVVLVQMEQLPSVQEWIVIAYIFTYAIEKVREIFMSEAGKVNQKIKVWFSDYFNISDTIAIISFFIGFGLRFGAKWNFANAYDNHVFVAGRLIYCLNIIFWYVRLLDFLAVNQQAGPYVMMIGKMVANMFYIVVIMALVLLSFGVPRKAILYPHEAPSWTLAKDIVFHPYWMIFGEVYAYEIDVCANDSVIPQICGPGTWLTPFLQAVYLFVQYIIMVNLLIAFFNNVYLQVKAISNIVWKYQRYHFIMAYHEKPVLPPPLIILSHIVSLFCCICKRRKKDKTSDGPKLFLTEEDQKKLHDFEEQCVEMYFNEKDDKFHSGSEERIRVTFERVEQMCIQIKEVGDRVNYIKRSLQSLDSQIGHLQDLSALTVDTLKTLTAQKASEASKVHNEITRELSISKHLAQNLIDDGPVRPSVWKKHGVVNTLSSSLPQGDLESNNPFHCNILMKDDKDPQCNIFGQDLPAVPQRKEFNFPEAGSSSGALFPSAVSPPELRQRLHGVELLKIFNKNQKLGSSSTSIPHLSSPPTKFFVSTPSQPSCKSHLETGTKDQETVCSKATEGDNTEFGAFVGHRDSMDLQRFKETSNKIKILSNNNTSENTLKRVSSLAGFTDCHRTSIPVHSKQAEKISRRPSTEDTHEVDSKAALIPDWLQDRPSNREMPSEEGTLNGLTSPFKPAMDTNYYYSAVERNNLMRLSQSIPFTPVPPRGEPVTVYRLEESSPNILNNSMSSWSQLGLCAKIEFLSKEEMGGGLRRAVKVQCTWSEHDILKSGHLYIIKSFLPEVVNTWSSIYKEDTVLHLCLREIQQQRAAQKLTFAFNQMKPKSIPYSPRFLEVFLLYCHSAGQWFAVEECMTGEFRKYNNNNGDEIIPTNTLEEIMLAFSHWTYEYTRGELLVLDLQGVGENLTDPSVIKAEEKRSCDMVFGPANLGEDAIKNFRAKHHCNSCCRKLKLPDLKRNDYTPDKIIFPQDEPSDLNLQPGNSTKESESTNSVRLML
Summary of the method: as §1

[8] = biological target: T8, 380 human recombinant protein kinases (Homo sapiens, UniProt Q9UEW8); settings: STK39(h), read-out: Inhibition rate (%)
T8 construct: purchased Eurofins (Celle Lévescault)
Summary of the method: as §1

T1 sequence (O00238 14-502): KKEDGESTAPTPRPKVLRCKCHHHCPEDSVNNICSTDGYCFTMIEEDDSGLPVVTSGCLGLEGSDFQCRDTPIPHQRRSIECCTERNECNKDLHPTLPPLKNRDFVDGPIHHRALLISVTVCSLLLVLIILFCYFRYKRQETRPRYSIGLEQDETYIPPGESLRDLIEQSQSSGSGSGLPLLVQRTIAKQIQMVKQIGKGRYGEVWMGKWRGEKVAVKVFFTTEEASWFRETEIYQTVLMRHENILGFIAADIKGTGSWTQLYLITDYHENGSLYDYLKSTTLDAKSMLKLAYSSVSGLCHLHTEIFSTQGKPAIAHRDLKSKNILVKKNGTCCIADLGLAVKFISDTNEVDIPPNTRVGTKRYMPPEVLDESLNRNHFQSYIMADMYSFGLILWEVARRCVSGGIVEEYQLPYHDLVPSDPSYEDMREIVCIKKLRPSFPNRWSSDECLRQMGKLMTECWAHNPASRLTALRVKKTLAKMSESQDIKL

C=CC(=O)Nc1cc(-c2cc(-c3cc4c([nH]3)CCNC4=O)ccn2)ccc1OC(F)(F)F [compound 11] gave an inhibition at 0.01 µM ([1]; 10 nM) of -13%, an inhibition at 0.1 µM ([1]; 100 nM) of 4% and an inhibition at 1 µM ([1]; 1000 nM) of 6%. It also gave an inhibition at 0.01 µM ([2]; 10 nM) of 0%, an inhibition at 0.1 µM ([2]; 100 nM) of -3% and an inhibition at 1 µM ([2]; 1000 nM) of 11%. For the same compound, the inhibition at 0.01 µM ([3]; 10 nM) was -11%, the inhibition at 0.1 µM ([3]; 100 nM) was -1% and the inhibition at 1 µM ([3]; 1000 nM) was 33%. The inhibition at 0.01 µM ([4]; 10 nM) was -8%, the inhibition at 0.1 µM ([4]; 100 nM) was -9% and the inhibition at 1 µM ([4]; 1000 nM) was -6%. It also gave an inhibition at 0.01 µM ([5]; 10 nM) of -12%, an inhibition at 0.1 µM ([5]; 100 nM) of 12% and an inhibition at 1 µM ([5]; 1000 nM) of 41%. It also gave an inhibition at 0.01 µM ([6]; 10 nM) of -2%, an inhibition at 0.1 µM ([6]; 100 nM) of -9% and an inhibition at 1 µM ([6]; 1000 nM) of 17%. It also gave an inhibition at 0.01 µM ([7]; 10 nM) of -7%, an inhibition at 0.1 µM ([7]; 100 nM) of 1% and an inhibition at 1 µM ([7]; 1000 nM) of -5%. It also gave an inhibition at 0.01 µM ([8]; 10 nM) of -10%, an inhibition at 0.1 µM ([8]; 100 nM) of -4% and an inhibition at 1 µM ([8]; 1000 nM) of 5%.

Source: PMC11233931, “Remodeling tumor‐associated macrophage for anti‐cancer effects by rational design of irreversible inhibition of mitogen‐activated protein kinase‐activated protein kinase 2” (MedComm, 2024)
